The source made the active and inactive calls. How the calls were made is not given here.
Test system: CCRIS mutagenicity, Ames/micronucleus/aberration tests
Test: CCRIS mutagenicity studies
[1] = Test System: AMES SALMONELLA TYPHIMURIUM, Strain/Indicator: TA97, Metabolic Activation: NONE, Method: PREINCUBATION
[2] = Test System: AMES SALMONELLA TYPHIMURIUM, Strain/Indicator: TA98, Metabolic Activation: NONE, Method: PREINCUBATION
[3] = Test System: AMES SALMONELLA TYPHIMURIUM, Strain/Indicator: TA100, Metabolic Activation: NONE, Method: PREINCUBATION
[4] = Test System: AMES SALMONELLA TYPHIMURIUM, Strain/Indicator: TA1535, Metabolic Activation: NONE, Method: PREINCUBATION
[5] = Test System: AMES SALMONELLA TYPHIMURIUM, Strain/Indicator: TA1537, Metabolic Activation: NONE, Method: PREINCUBATION
[6] = Test System: AMES SALMONELLA TYPHIMURIUM, Strain/Indicator: TA98, Metabolic Activation: RAT LIVER S-9, PHENOBARBITAL AND BETA-NAPHTHOFLAVONE, Method: PREINCUBATION
[7] = Test System: AMES SALMONELLA TYPHIMURIUM, Strain/Indicator: TA100, Metabolic Activation: RAT LIVER S-9, PHENOBARBITAL AND BETA-NAPHTHOFLAVONE, Method: PREINCUBATION
[8] = Test System: AMES SALMONELLA TYPHIMURIUM, Strain/Indicator: TA102, Metabolic Activation: NONE, Method: PREINCUBATION
[9] = Test System: AMES SALMONELLA TYPHIMURIUM, Strain/Indicator: TA1535, Metabolic Activation: RAT LIVER S-9, PHENOBARBITAL AND BETA-NAPHTHOFLAVONE, Method: PREINCUBATION
[10] = Test System: AMES SALMONELLA TYPHIMURIUM, Strain/Indicator: TA1537, Metabolic Activation: RAT LIVER S-9, PHENOBARBITAL AND BETA-NAPHTHOFLAVONE, Method: PREINCUBATION
[11] = Test System: E.COLI, Strain/Indicator: WP2UVRA/PKM101, Metabolic Activation: NONE, Method: PREINCUBATION
[12] = Test System: E.COLI, Strain/Indicator: WP2UVRA/PKM101, Metabolic Activation: RAT LIVER S-9, PHENOBARBITAL AND BETA-NAPHTHOFLAVONE, Method: PREINCUBATION

| SMILES | mutagenic call [1] | mutagenic call [2] | mutagenic call [3] | mutagenic call [4] | mutagenic call [5] | mutagenic call [6] | mutagenic call [7] | mutagenic call [8] | mutagenic call [9] | mutagenic call [10] | mutagenic call [11] | mutagenic call [12] | further results |
| --- | --- | --- | --- | --- | --- | --- | --- | --- | --- | --- | --- | --- | --- |
| COc1ccc(C(Cl)=C(c2ccc(OC)cc2)c2ccc(OC)cc2)cc1 | inactive; negative | inactive; negative | inactive; negative | inactive; negative | inactive; negative | – | – | – | – | – | – | – | mutagenic call (Test System: AMES SALMONELLA TYPHIMURIUM, Strain/Indicator: TA97, Metabolic Activation: HAMSTER, LIVER, S-9, AROCLOR 1254 (10 OR 30%), Method: PREINCUBATION): inactive; negative; mutagenic call (Test System: AMES SALMONELLA TYPHIMURIUM, Strain/Indicator: TA97, Metabolic Activation: RAT, LIVER, S-9, AROCLOR 1254 (10 OR 30%), Method: PREINCUBATION): inactive; negative; mutagenic call (Test System: AMES SALMONELLA TYPHIMURIUM, Strain/Indicator: TA98, Metabolic Activation: HAMSTER, LIVER, S-9, AROCLOR 1254 (10 OR 30%), Method: PREINCUBATION): inactive; negative; mutagenic call (Test System: AMES SALMONELLA TYPHIMURIUM, Strain/Indicator: TA98, Metabolic Activation: RAT, LIVER, S-9, AROCLOR 1254 (10 OR 30%), Method: PREINCUBATION): inactive; negative; mutagenic call (Test System: AMES SALMONELLA TYPHIMURIUM, Strain/Indicator: TA100, Metabolic Activation: HAMSTER, LIVER, S-9, AROCLOR 1254 (10 OR 30%), Method: PREINCUBATION): inactive; negative; mutagenic call (Test System: AMES SALMONELLA TYPHIMURIUM, Strain/Indicator: TA100, Metabolic Activation: RAT, LIVER, S-9, AROCLOR 1254 (10 OR 30%), Method: PREINCUBATION): inactive; negative; mutagenic call (Test System: AMES SALMONELLA TYPHIMURIUM, Strain/Indicator: TA1535, Metabolic Activation: HAMSTER, LIVER, S-9, AROCLOR 1254 (10 OR 30%), Method: PREINCUBATION): inactive; negative; mutagenic call (Test System: AMES SALMONELLA TYPHIMURIUM, Strain/Indicator: TA1535, Metabolic Activation: RAT, LIVER, S-9, AROCLOR 1254 (10 OR 30%), Method: PREINCUBATION): inactive; negative; mutagenic call (Test System: AMES SALMONELLA TYPHIMURIUM, Strain/Indicator: TA1537, Metabolic Activation: HAMSTER, LIVER, S-9, AROCLOR 1254 (10%), Method: PREINCUBATION): inactive; negative; mutagenic call (Test System: AMES SALMONELLA TYPHIMURIUM, Strain/Indicator: TA1537, Metabolic Activation: HAMSTER, LIVER, S-9, AROCLOR 1254 (30%), Method: PREINCUBATION): inactive; negative; mutagenic call (Test System: AMES SALMONELLA TYPHIMURIUM, Strain/Indicator: TA1537, Metabolic Activation: RAT, LIVER, S-9, AROCLOR 1254 (10 OR 30%), Method: PREINCUBATION): inactive; negative |
| O=C(O)c1ccc(O)cc1 | – | inactive; negative | inactive; negative | inactive; negative | inactive; negative | inactive; negative | inactive; negative | inactive; negative | inactive; negative | inactive; negative | inactive; negative | inactive; negative | mutagenic call (Test System: AMES SALMONELLA TYPHIMURIUM, Strain/Indicator: TA98, Metabolic Activation: NONE, Method: STANDARD PLATE): inactive; negative; mutagenic call (Test System: AMES SALMONELLA TYPHIMURIUM, Strain/Indicator: TA100, Metabolic Activation: NONE, Method: STANDARD PLATE): inactive; negative; mutagenic call (Test System: AMES SALMONELLA TYPHIMURIUM, Strain/Indicator: TA102, Metabolic Activation: RAT LIVER S-9, PHENOBARBITAL AND BETA-NAPHTHOFLAVONE, Method: PREINCUBATION): inactive; negative; mutagenic call (Test System: AMES SALMONELLA TYPHIMURIUM, Strain/Indicator: TA104, Metabolic Activation: NONE, Method: PREINCUBATION): inactive; negative; mutagenic call (Test System: AMES SALMONELLA TYPHIMURIUM, Strain/Indicator: TA104, Metabolic Activation: RAT LIVER S-9, PHENOBARBITAL AND BETA-NAPHTHOFLAVONE, Method: PREINCUBATION): inactive; negative; mutagenic call (Test System: E. COLI, Strain/Indicator: CM561 LEXA, Metabolic Activation: NONE, Method: STANDARD PLATE): inactive; negative; mutagenic call (Test System: E. COLI, Strain/Indicator: CM611 UVRA/LEXA, Metabolic Activation: NONE, Method: STANDARD PLATE): inactive; negative; mutagenic call (Test System: E. COLI, Strain/Indicator: WP2 UVRA, Metabolic Activation: NONE, Method: STANDARD PLATE): inactive; negative; mutagenic call (Test System: E.COLI, Strain/Indicator: WP2UVRA, Metabolic Activation: NONE, Method: PREINCUBATION): inactive; negative; mutagenic call (Test System: E.COLI, Strain/Indicator: WP2UVRA, Metabolic Activation: RAT LIVER S-9, PHENOBARBITAL AND BETA-NAPHTHOFLAVONE, Method: PREINCUBATION): inactive; negative |
| C[N+](C)(CF)CCO | – | – | – | – | – | – | – | – | – | – | – | – | mutagenic call (Test System: Mouse lymphoma, Strain/Indicator: L5178Y (tk+/tk-), Metabolic Activation: None, Method: Suspension/plate): inactive; negative; mutagenic call (Test System: Mouse lymphoma, Strain/Indicator: L5178Y (tk+/tk-), Metabolic Activation: Rat, Liver, S-9, Aroclor 1254, Method: Suspension/plate): inactive; negative |
| CCCCN(CC(C)=O)N=O | – | – | – | – | – | – | – | – | – | – | – | – | mutagenic call (Test System: AMES SALMONELLA TYPHIMURIUM, Strain/Indicator: TA1535, Metabolic Activation: RAT, LIVER, S-9, KC500 OR PHENOBARBITAL, Method: LIQUID SUSPENSION): active; positive |
| COc1cccc(C=O)c1 | – | – | – | – | – | – | – | – | – | – | – | – | mutagenic call (Test System: MOUSE LYMPHOMA, Strain/Indicator: L5178Y (TK+/TK-), Metabolic Activation: NONE, Method: SUSPENSION/PLATE): inactive; negative |
| CC(=O)c1ccccc1 | inactive; negative | inactive; negative | inactive; negative | inactive; negative | inactive; negative | inactive; negative | inactive; negative | inactive; negative | inactive; negative | inactive; negative | inactive; negative | inactive; negative | mutagenic call (Test System: AMES SALMONELLA TYPHIMURIUM, Strain/Indicator: TA97, Metabolic Activation: RAT, LIVER, S-9, AROCLOR 1254, Method: PREINCUBATION): inactive; negative; mutagenic call (Test System: AMES SALMONELLA TYPHIMURIUM, Strain/Indicator: TA102, Metabolic Activation: RAT, LIVER, S-9, AROCLOR 1254, Method: PREINCUBATION): inactive; negative |
